Among the data in US11912723B2, “KRAS modulators and uses thereof” (Quanta Therapeutics, Inc., priority 2022, dated 2024) are IC50 values, retold here.

This assay addresses T1, wtKRAS/RAF1 (Homo sapiens, UniProt P01116).
T1 construct: KRAS (1-169) proteins were expressed in E. coli at 18° C; His6-MBP (N, cleaved yes); made in house; host or cells: E. coli
The assay is described as follows: Protein-protein interaction (PPI) HTRF assay w.t.KRAS/RAF1. The assay is classed as binding. On the procedure:
Biotinylated KRAS wt and KRAS G12DNV proteins were expressed and purified in conditions similar to those previously reported (Tran, et al., 2021) (Zhang, et al., 2020). Briefly, KRAS (1-169) proteins were expressed in E. coli at 18° C. with an upstream TEV cleavage site (ENLFYQS) followed an Avi tag sequence ([…]). KIRAS expression constructs contained both a His6 and maltose-binding protein (MBP) tags at the N-terminus for Ni-NTA column purification prior to overnight TEV cleavage and MBP column purification. The avi-tagged NRAS expression construct contained both a His6 tag and SUMO cleavage sige at the N-terminus for Ni-NTA column purification followed by His-ULP1 digestion overnight. All avi-tagged RAS proteins were dialyzed into buffer containing ATP, biotin, and BirA followed by purification over a second Ni-NTA column and then run over a size exclusion HiLoad™ 26/600 Superdex™ column in 20 mM HEPES, pH 7.5, 300 mM NaCl, 5 mM MgCl2, and 1 mM TCEP. Fractions containing the protein of interest were pooled, concentrated, and confirmed by intact mass spectrometry. To prepare ‘GTP’ loaded KRAS and NRAS, biotinylated KRAS or NRAS was nucleotide exchanged from GDP-bound protein to GppNHp-bound (Jena Biosciences, NU-401-50) protein in the presence of alkaline phosphatase and excess GppNHp as previously described and the resulting nucleotide content was confirmed by HPLC reverse phase analytical chromatography (Donohue, et al., 2019) (Tran, et al., 2021).
His-tagged RAF1 (52-131) was similarly expressed in E. coli at 18° C. overnight with an upstream TEV cleavage site. His-tagged RAF1 expression construct contained both a His6 and MBP tags at the N-terminus for Ni-NTA column purification followed by MBP-tagged TEV digestion overnight. RAF1 protein samples were further purified over a MBP column followed by a Ni-NTA column and a second MBP column. The fractions containing the protein of interest were pooled, concentrated, and further purified over a HiLoad™ 16/600 Superdex™ 75 pg size exclusion column into 20 mM HEPES, pH8.0, 200 mM NaCl, 5 mM TCEP.
When RAS proteins are in the active GTP-bound conformation, they bind the effector protein RAF1 at the N-terminus Ras-binding domain (RBD, residues 52-131) (Tran, et al., 2021). Homogenous time resolved fluorescence (HTRF) was used to monitor the interaction between wt or mutant KRAS and RAF1 or wt NRAS and RAFT. Compounds were assayed in the presence of KRAS G12D/V and RAF1 versus wt KRAS to assess activity against mutant and w.t. KRAS. Similarly, compounds were then assayed in the presence of w.t. NRAS and RAF1 to assess RAS isoform selectivity. In all assay formats, His-tagged RAF1 protein was incubated with the HTRF donor, anti-6His Tb Cryptate gold (Cisbio 61DB10RDF), and biotinylated RAS proteins were incubated with the HTRF acceptor, streptavidin-d2 (CisBio 610SADLA). The intensity of the fluorescence signal emitted is proportional to binding between the two proteins. The donor solution was prepared by mixing 16 nM His-tagged RAF1 in protein dilution buffer with 1:100 anti-6His Tb cryptate in PPI-Terbium detection buffer. 16 nM biotinylated RAS protein was diluted into protein dilution buffer (50 mM Tris-HCl pH 7.5, 150 mM NaCl, 0.1 mM MgCl2, 1 mM TCEP, 0.005% Tween20) and mixed with 1:2000 Streptavidin-d2 diluted in PPI-Terbium detection buffer (CisBio 61DB10RDF). 50× compound in DMSO was mixed with 16 nM KRAS-acceptor solution and incubated for 30 minutes at room temperature. After compound pre-incubation with KRAS, the RAF1 donor solution was added to the KRAS-acceptor solution and incubated for 1 hour at room temperature. The fluorescence signal emitted was monitored at 665 nm and 615 nm using an Envision multimode plate reader. The HTRF ratio (665/615) was calculated and normalized to 0% inhibition in the absence of compound and 100% inhibition in the presence of untagged RAF1 protein. […]
Background: Time-resolved FRET reads energy transfer from a long-lived donor to a nearby acceptor.

T1 sequence (P01116 1-169 isoform P01116-2): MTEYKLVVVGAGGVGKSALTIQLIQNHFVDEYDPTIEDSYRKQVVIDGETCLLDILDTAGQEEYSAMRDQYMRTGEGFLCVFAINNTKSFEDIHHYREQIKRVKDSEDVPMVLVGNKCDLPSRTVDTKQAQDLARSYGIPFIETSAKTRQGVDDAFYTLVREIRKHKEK

The term IC50 denotes the concentration that gives 50% inhibition. Low values mean greater potency, high ones weaker potency. Consider `Cc1nnc(-c2nn3c(c2Cl)CN(c2nc(OC[C@@]45CCCN4C[C@H](F)C5)nc4c2CN(C)[C@@]2(CCCc5ccccc52)C4)CCC3)n1C` [Compound 90, (7S)-4-[3-chloro-2-(4,5-dimethyl-1,2,4-triazol-3-yl)-4,6,7,8-tetrahydropyrazolo[1,5-a][1,4]diazepin-5-yl]-2-[[(2R,8S)-2-fluoro-1,2,3,5,6,7-hexahydropyrrolizin-8-yl]methoxy]-6-methyl-spiro[5,8-dihydropyrido[4,3-d]pyrimidine-7,1′-tetralin]], for which the IC50 is more than 100 µM. Next, `CN(C)C(=O)c1nn2c(c1Cl)CN(c1nc(OC[C@@]34CCCN3C[C@H](F)C4)nc3c1CN(C)[C@@]1(CCc4ccccc41)C3)CCC2` [Compound 53, 3-chloro-5-[(7S)-2-[[(2R,8S)-2-fluoro-1,2,3,5,6,7-hexahydropyrrolizin-8-yl]methoxy]-6-methyl-spiro[5,8-dihydropyrido[4,3-d]pyrimidine-7,1′-indane]-4-yl]-N,N-dimethyl-4,6,7,8-tetrahydropyrazolo[1,5-a][1,4]diazepine-2-carboxamide]: 10 to 100 µM. Take `CN(C)C(=O)c1nn2c(c1Cl)CN(c1nc(OC[C@@]34CCCN3C[C@H](F)C4)nc3c1CN(C)[C@@]1(CCc4cccc(O)c41)C3)CCC2` [Compound 96, 3-chloro-5-[(7S)-2-[[(2R,8S)-2-fluoro-1,2,3,5,6,7-hexahydropyrrolizin-8-yl]methoxy]-7′-hydroxy-6-methyl-spiro[5,8-dihydropyrido[4,3-d]pyrimidine-7,1′-indane]-4-yl]-N,N-dimethyl-4,6,7,8-tetrahydropyrazolo[1,5-a][1,4]diazepine-2-carboxamide]: the IC50 is more than 100 µM. As for `C#Cc1c(C(=O)N(C)C)nn2c1CN(c1nc(OC[C@@]34CCCN3C[C@H](F)C4)nc3c1CN(C)[C@@]1(CCCc4ccccc41)C3)CCC2` [Compound 81, 3-ethynyl-5-[(7S)-2-[[(2R,8S)-2-fluoro-1,2,3,5,6,7-hexahydropyrrolizin-8-yl]methoxy]-6-methyl-spiro[5,8-dihydropyrido[4,3-d]pyrimidine-7,1′-tetralin]-4-yl]-N,N-dimethyl-4,6,7,8-tetrahydropyrazolo[1,5-a][1,4]diazepine-2-carboxamide], the IC50 fell in the range of 10 to 100 µM.
